Where “and” joins values, the source holds several entries; their conditions need not be identical. Equal values may be shown once. Where a name gives a salt, the structure may show the parent alone.
Experiments:
human α-thrombin [1] = target: T1, human α-thrombin (Homo sapiens, UniProt P00734); test: Enzyme assay for the inhibition of thrombin (s-2238 substrate); assay type: biochemical; parameters: key to Thrombin k2 /ki (second order rate constant), cells with symbol *: *: not measurable; conditions: for IC50: 3 min incubation of drug with enzyme, room temperature; for Thrombin k2 /ki (second order rate constant for inactivation of the enzyme) / Thrombin k2 /ki (second order rate constant), cells with symbol *: human α-thrombin; for Thrombin k2 /ki (second order rate constant for inactivation of the enzyme): s-2238, pH 7.4, room temperature; for Thrombin k2 /ki (second order rate constant), cells with symbol *: * = not measurable
T1 construct: purified human α-thrombin dissolved in thrombin assay buffer
Experimental: 1. Enzyme Assays for the Inhibition of Thrombin The following reagents were used in these assays: Thrombin assay buffer: 145 mM NaCl, 5 mM KCl, 30 mM N-2-hydroxyethyl piperazine-N'-2-ethanesulfonic acid, pH 7.4, 1 mg/ml polyethylene glycol (PEG-8000). 3 mM D-Phe-Pip-Arg-p-nitroanilide (s-2238) in H2 O. 3 U/ml purified human α-thrombin dissolved in thrombin assay buffer. Inhibitors to be tested were dissolved in H2 O, methanol, or DMSO just prior to use. Assay Procedure To each well in a 96-well microtiter plate, 270 μl of assay buffer was added. Human α-thrombin (10 μl of 3 U/ml) was added, then 10 μl of inhibitor were added and mixed. The samples were incubated at room temperature for a defined period of time (3 min for initial IC50 determinations). The enzymic reaction was started with 10 μl of 3 mM s-2238 substrate and continued at room temperature. The change in optical density was measured at 405 nm. A kinetic microplate reader (Molecular Devices Corporation Vmax) was used to measure the change in optical density over time. Results are reported in Table 1 as IC50 values, i.e., the drug concentration in mole/liter which caused 50% inhibition of the enzyme activity (after incubation of the drug with the enzyme for 3 min). Alternatively, results are also reported in Table 1 expressed as k2 /ki which is the second order rate constant in per mole per minute for inactivation time of the enzyme [Kitz, et al., J. Biol. Chem., 237, 3245 (1962)].

[2] = target: T2, bovine pancreatic trypsin (Bos taurus, UniProt P00760); test: Enzyme assay for the inhibition of trypsin (Z-Val-Gly-Arg-pNA substrate); assay type: biochemical; conditions: 3 min incubation of drug with enzyme, room temperature, pH 8.0; read-out: Trypsin IC50
T2 construct: purified bovine pancreatic trypsin dissolved in trypsin assay buffer
T2 sequence (P00760 24-246): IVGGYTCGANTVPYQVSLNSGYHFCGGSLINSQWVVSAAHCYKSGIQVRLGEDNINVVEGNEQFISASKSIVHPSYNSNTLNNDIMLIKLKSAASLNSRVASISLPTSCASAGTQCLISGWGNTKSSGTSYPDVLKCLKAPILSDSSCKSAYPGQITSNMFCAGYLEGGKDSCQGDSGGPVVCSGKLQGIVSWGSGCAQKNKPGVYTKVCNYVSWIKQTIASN
Experimental: 2. Enzyme Assays for the Inhibition of Trypsin
(§1) The following reagents were used in these assays:
Trypsin assay buffer: 2 mM CaCl2, 50 mM Tris/Cl pH 8.0.
3 mM Z-Val-Gly-Arg-pNA (Chromzyme TRy) dissolved in H2 O.
6 μg/ml of purified bovine pancreatic trypsin dissolved in trypsin assay buffer.
Inhibitors to be tested were dissolved in H2 O, methanol or DMSO just prior to use.
To each well in a 96-well microtiter plate, 270 μl of assay buffer was added. Bovine trypsin (10 μl of 6 μg/ml) was added. Inhibitor (10 μl ) was added, mixed, and then incubated at room temperature for 3 min. The enzymic reaction was started with 10 μl of 3 mM Z-Val-Gly-Arg-pNA substrate. The change in optical density was measured at 405 nm at room temperature. A kinetic microplate reader (Molecular Devices Corporation Vmax) was used to measure the change in optical density over time.
Results are reported in Table 1 as IC50 values, i.e., the drug concentration in mole/liter which caused 50% inhibition of the enzyme activity (after incubation of the drug with the enzyme for 3 min).

human α-thrombin [3] = target: T1, human α-thrombin; test: Concentration required for doubling thrombin clotting time in human plasma; assay type: biochemical; conditions: human citrated plasma, 10 U/ml human thrombin; read-out: ED50, drug concentration required to double clotting time
Experimental: Procedure for Determining the Concentration Required for Doubling Thrombin Clotting Time--Clotting Time Assays The following reagents were used in these assays: Owren's Veronal Buffer: 125 mM NaCl, 28.4 mM sodium barbital, pH 7.35. Human citrated plasma obtained from human volunteers or citrated plasma obtained from IP-dosed animals (prepared as described below). 10 NIH Units/ml human α-thrombin in thrombin buffer for use with human plasma. […] The blood was centrifuged at […] (480×g) for 15 min at room temperature (using a Sorvall RT 6000B centrifuge). The plasma was removed, pooled, and aliquoted into small tubes which were stored frozen for later use. Clotting Time Measurement Clotting times were determined by pipetting 0.1 ml of Owren's buffer (pre-warmed 37° C.) and 0.1 ml of human or rat plasma into yellow sample cuvettes. For studies with human plasma 10 U/ml human thrombin (10 ml) was placed in the reservoir assembly station of the MLA 700. (Medical Laboratory Automation, Electra 700 Reservoir Assembly). For rat studies, the human thrombin concentration was 25 U/ml. The cuvettes were vortexed and then placed on the MLA 700 sample wheel. The coagulation timer (MLA 700) automatically dispenses 0.1 ml human thrombin into the sample in each cuvette. Detection of the fibrin clot was determined optically by the MLA 700. Studies were performed to determine the concentration of drug which caused a doubling of the clotting time in human plasma. From standard curves of thrombin activity added to the sample versus the clotting time, the concentration of drug which caused a doubling of the thrombin clotting time corresponded to inhibition of approximately 1/2 of the added thrombin clotting activity. Results are reported in Table 1 as ED50 values, i.e., the drug concentration required to double clotting time.

[4] = system: Thrombin Induced Clotting Time; test: Thrombin induced clotting time ex vivo in plasma of i.p. dosed rats; conditions: rat, 50 mg/kg i.p.
Experimental: Procedure for Determining the Concentration Required for Doubling Thrombin Clotting Time--Clotting Time Assays
as §1
Owren's Veronal Buffer: 125 mM NaCl, 28.4 mM sodium barbital, pH 7.35.
Human citrated plasma obtained from human volunteers or citrated plasma obtained from IP-dosed animals (prepared as described below).
25 NIH Units/ml human α-thrombin in thrombin buffer for use with rat plasma.
Test compound was prepared just prior to dosing. Routinely the drugs are dissolved in water. Animals were dosed by i.p. injection.
After the appropriate time period, the animals were ether-anesthetized, and blood was drawn by cardiac puncture using 333 μl of 3.8% sodium citrate per 3 ml blood. After all of the samples were obtained, the tubes were centrifuged at 1,500 rpm for 15 min as described for the human blood samples.
Clotting Time Measurement
Clotting times were determined by pipetting 0.1 ml of Owren's buffer (pre-warmed 37° C.) and 0.1 ml of human or rat plasma into yellow sample cuvettes. For studies with human plasma 10 U/ml human thrombin (10 ml) was placed in the reservoir assembly station of the MLA 700. (Medical Laboratory Automation, Electra 700 Reservoir Assembly). For rat studies, the human thrombin concentration was 25 U/ml. The cuvettes were vortexed and then placed on the MLA 700 sample wheel. The coagulation timer (MLA 700) automatically dispenses 0.1 ml human thrombin into the sample in each cuvette. Detection of the fibrin clot was determined optically by the MLA 700.
In separate studies, two compounds, Compound XIX and Compound XI, were dosed 50 mg/kg I.P. to three rats in each study group. […] "Term" indicates "terminated sample" where a clot was unable to form after approximately 99 seconds. When this occurred, the animal plasma was diluted 1: 1 with control rat plasma and the sample tested again. If need, the animal plasma was diluted 1:4 and tested again.

[5] = 0.5 hr. post dose, undiluted plasma, per animal

Row | IC50 (human α-thrombin [1]) | Thrombin k2 /ki (second order rate constant for inactivation of the enzyme) (human α-thrombin [1]) | IC50 [2] | IC (2-fold clotting time) (human α-thrombin [3]) | SMILES | further results
1 | 0.02 µM | 1.5 × 10^6 m^-1 min^-1 | 0.07 µM | – | COC(=O)[C@H]1[C@H](CCCNC(=N)N)C(=O)N1S(C)(=O)=O.Cl (relative stereo) [IV, trans-4-Methoxycarbonyl-3-(guanidinopropyl)-1-methylsulfonyl-2-azetidinone hydrochloride salt] | –
2 | 0.0032 µM | 3.0 × 10^6 m^-1 min^-1 | 0.75 µM | 15 µM | CC(=O)N1C(=O)[C@@H](CCCNC(=N)N)[C@@H]1S(=O)(=O)c1ccccc1 (relative stereo) [VI, trans-4-Phenylsulfonyl-3-guanidinopropyl-1-acetyl-2-azetidine hydrochloride salt] | –
3 | 0.1 µM | – | – | – | CC(=O)N1CC(CCCNC(=N)N)C1=O (stereo not shown) [VIII, 3-Guanidinopropyl-1-acetyl-2-azetidinone hydrochloride salt] | –
4 | – | 3.0 × 10^6 m^-1 min^-1 | – | – | CCS(=O)(=O)[C@H]1[C@H](CCCNC(=N)N)C(=O)N1C(C)=O (relative stereo) [Compound X, trans-4-Ethylsulfonyl-3-quanidinopropyl-1-acetyl-2-azetidinone hydrochloride salt] | –
5 | 0.074 µM | – | – | – | CC(=O)OC1C(CCCNC(=N)N)C(=O)N1C(=O)C(C)(C)C (stereo not shown) [XXI, 4-Acetyloxy-3-guanidinopropyl-1-t-butylcarbonyl-2-azetidinone hydrochloride salt] | –
6 | 0.21 µM | 1.5 × 10^6 m^-1 min^-1 | 0.47 µM | 3 µM | CC(=O)N1C(=O)[C@@H](CCCNC(=N)N)[C@@H]1CCc1ccccc1 (relative stereo) [XV, trans-4-(2-Phenylethyl)-3-guanidinooropyl-1-acetyl-2azetidinone hydrochloride salt] | –
7 | 0.012 µM | 2.0 × 10^7 m^-1 min^-1 | – | 0.43 µM | CC(=O)N1C(=O)[C@@H](CCCNC(=N)N)[C@@H]1C(=O)NCC(=O)O (relative stereo) [Compound XIX, 4-[[(2-Hydroxy-2-oxoethyl)amino]carbonyl]-3-(3-guanidinopropyl)-1-acetyl-2-azetidinone hydrochloride salt] | Thrombin Induced Clotting Time (1:1 Control Plasma) ([4]; 0.5 hr. post dose, plasma diluted 1:1 with control rat plasma, hydrochloride salt, 50 mg/kg, in s): 14.4 and 17.3; Thrombin Induced Clotting Time [4, 5]: 45.2 s; Thrombin Induced Clotting Time, terminated samples [4, 5]: term. ("terminated sample" where a clot was unable to form after approximately 99 seconds); Thrombin Induced Clotting Time ([4]; 2 hr. post dose, undiluted plasma, per animal, hydrochloride salt, 50 mg/kg): 12.9 s and 13.3 s and 14.4 s; Thrombin Induced Clotting Time ([4]; 5 hr. post dose, undiluted plasma, per animal, hydrochloride salt, 50 mg/kg): 13.5 s and 13.6 s and 13.3 s; Clotting time ex vivo, result in words ([4]; three rats per group): prolonged clotting time
8 | 0.049 µM | 4.3 × 10^6 m^-1 min^-1 | – | 1.25 µM | CC(=O)N1C(=O)C(CCCNC(=N)N)C1C(=O)N1CCC[C@H]1C(=O)O (stereo partly drawn) [XVIII, trans-4-[(2-Carboxy-1-pyrrolidinyl)carbonyl]-3-(3-guanidino)-procyl-1-acetyl-2-azetidinone hydrochloride salt] | –
9 | 0.002 to 0.009 µM | 1.2 × 10^8 m^-1 min^-1 | 0.008 µM | 65 µM | COC(=O)[C@H]1[C@H](CCCNC(=N)N)C(=O)N1S(=O)(=O)c1ccc(C)cc1.Cl (relative stereo) [I, trans-4-Methoxycarbonyl-3-(3-guanidinopropyl)-1-p-toluenesulfonyl-2-azetidinone hydrochloride salt] | –
10 | – | 4.3 × 10^4 m^-1 min^-1 | – | 20 µM | CC(=O)N1C(=O)[C@H](CCCNC(=N)N)[C@@H]1C(=O)N1CCCCC1 (relative stereo) [XXIII, cis-4-(1-Piperidinocarbonyl)-3-guanidinopropyl-1-acetyl-2-azetidinone hydrochloride salt] | –
11 | – | 3.7 × 10^5 m^-1 min^-1 | – | 50 µM | COC(=O)[C@H]1[C@H](CCCCNC(=N)N)C(=O)N1S(=O)(=O)c1cccc2c(N(C)C)cccc12 (relative stereo) [XVII, trans-4-Methoxycarbonyl-3-(4-guanidinobutyl)-1-[(5-dimethylamino)-1-naphthalenesulfonyl]-2-azetidinone hydrochloride salt] | –
12 | 1 µM | – | – | 30 µM | CN(C)c1cccc2c(S(=O)(=O)N3CC(CCCNC(=N)N)C3=O)cccc12 (stereo not shown) [IX, 3-Guanidinopropyl-1-[(5-dimethylamino)-1-naphthanesulfonyl)]-2-azetidinone hydrochloride salt] | Thrombin k2 /ki (second order rate constant), cells with symbol * (human α-thrombin [1]): *
13 | 0.035 µM | – | – | 10.0 µM | CC(=O)OC1C(CCCNC(=N)N)C(=O)N1C(=O)c1ccccc1 (stereo not shown) [XXII, 4-Acetyloxy-3-guanidinooropyl-1-phenylcarbonyl-2-azetidinone hydrochloride salt] | Thrombin k2 /ki (second order rate constant), cells with symbol * (human α-thrombin [1]): *

— patent US5175283A, “Azetidin-2-one derivatives as serine protease inhibitors” (Bristol-Myers Squibb Company, priority 1992, dated 1992)
